Test results reported in the supplement of paper PMC10307832.

Assays:
Assay in all cases: relative viability (nuclei count vs DMSO), 5 days (fraction); higher = more cells survive
VE-821 + Olaparib = compound: CS(=O)(=O)c1ccc(-c2cnc(N)c(C(=O)Nc3ccccc3)n2)cc1 [VE-821] + O=C(c1cc(Cc2n[nH]c(=O)c3ccccc23)ccc1F)N1CCN(C(=O)C2CC2)CC1 [Olaparib] (partner 8 µM)
Procedure, shortened: (§1)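 Lung cancer cell lines in 1536-well plates got either a single drug or a fixed anchor-drug dose together with five library-drug doses (not always all listed) in √10 steps, by pin tool, on the day after seeding. Nuclei were counted after 5 days, and relative viability is the treated-to-vehicle ratio of nuclei counts. Values are medians of duplicate plates.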

Vismodegib + Dasatinib = compound: CS(=O)(=O)c1ccc(C(=O)Nc2ccc(Cl)c(-c3ccccn3)c2)c(Cl)c1 [Vismodegib] + Cc1nc(Nc2ncc(C(=O)Nc3c(C)cccc3Cl)s2)cc(N2CCN(CCO)CC2)n1 [Dasatinib] (partner 0.075 µM)
Procedure, shortened: as §1

Vismodegib + AZD7762 = compound: CS(=O)(=O)c1ccc(C(=O)Nc2ccc(Cl)c(-c3ccccn3)c2)c(Cl)c1 [Vismodegib] + NC(=O)Nc1cc(-c2cccc(F)c2)sc1C(=O)N[C@H]1CCCNC1 [AZD7762] (partner 0.2 µM)
Procedure, shortened: as §1

Vismodegib + Pictilisib = compound: CS(=O)(=O)c1ccc(C(=O)Nc2ccc(Cl)c(-c3ccccn3)c2)c(Cl)c1 [Vismodegib] + CS(=O)(=O)N1CCN(Cc2cc3nc(-c4cccc5[nH]ncc45)nc(N4CCOCC4)c3s2)CC1 [Pictilisib] (partner 1 µM)
Procedure, shortened: as §1

Cell Line | relative viability (VE-821 + Olaparib; first compound 0.08 µM) | relative viability (VE-821 + Olaparib; first compound 0.253 µM) | relative viability (VE-821 + Olaparib; first compound 0.8 µM) | relative viability (VE-821 + Olaparib; first compound 2.53 µM) | relative viability (VE-821 + Olaparib; first compound 8 µM) | relative viability (Vismodegib + Dasatinib; first compound 0.08 µM) | relative viability (Vismodegib + Dasatinib; first compound 0.253 µM) | relative viability (Vismodegib + Dasatinib; first compound 0.8 µM) | relative viability (Vismodegib + Dasatinib; first compound 2.53 µM) | relative viability (Vismodegib + Dasatinib; first compound 8 µM) | relative viability (Vismodegib + AZD7762; first compound 0.08 µM) | relative viability (Vismodegib + AZD7762; first compound 0.8 µM) | relative viability (Vismodegib + AZD7762; first compound 2.53 µM) | relative viability (Vismodegib + AZD7762; first compound 8 µM) | relative viability (Vismodegib + Pictilisib; first compound 0.08 µM) | relative viability (Vismodegib + Pictilisib; first compound 0.253 µM) | relative viability (Vismodegib + Pictilisib; first compound 0.8 µM) | relative viability (Vismodegib + Pictilisib; first compound 2.53 µM) | relative viability (Vismodegib + Pictilisib; first compound 8 µM) | relative viability (Vismodegib + AZD7762; first compound 0.253 µM)
HARA | 0.695 | 0.798 | 0.583 | 0.387 | 0.391 | 0.263 | 0.249 | 0.254 | 0.339 | 0.279 | 0.462 | 0.309 | 0.244 | 0.417 | 0.472 | 0.423 | 0.417 | 0.396 | 0.448 | 
HCC-44 | 0.939 | 0.978 | 0.971 | 0.986 | 0.957 |  |  |  |  |  | 1.06 | 0.932 | 1.01 | 1.04 | 0.611 | 0.657 | 0.546 | 0.474 | 0.668 | 1.04
IA-LM | 0.852 | 0.734 | 0.832 | 0.801 | 0.36 |  |  |  |  |  |  |  |  |  | 0.363 | 0.354 | 0.277 | 0.281 | 0.379 | 
NCI-H520 | 0.321 | 0.386 | 0.307 | 0.275 | 0.228 | 0.191 | 0.202 | 0.188 | 0.166 | 0.203 |  |  |  |  | 0.332 | 0.254 | 0.271 | 0.274 | 0.309 | 
NCI-H522 | 0.627 | 0.698 | 0.645 | 0.657 | 0.594 | 0.915 | 0.888 | 0.883 | 0.793 | 0.879 | 1.06 | 0.849 | 0.81 | 0.857 |  |  |  |  |  | 0.875
NCI-H661 | 0.766 | 0.801 | 0.671 | 0.708 | 0.687 | 0.807 | 0.815 | 0.897 | 0.892 | 0.856 |  |  |  |  | 0.3 | 0.392 | 0.403 | 0.331 | 0.367 | 
NCI-H1299 | 1.04 | 1.01 | 1.07 | 0.896 | 0.527 |  |  |  |  |  |  |  |  |  | 0.761 | 0.815 | 0.72 | 0.787 | 0.96 | 
NCI-H1563 |  |  |  |  |  | 0.455 | 0.443 | 0.477 | 0.495 | 0.454 |  |  |  |  | 0.649 | 0.591 | 0.647 | 0.643 | 0.72 | 
NCI-H1623 |  |  |  |  |  | 0.48 | 0.565 | 0.557 | 0.51 | 0.462 |  |  |  |  |  |  |  |  |  | 
NCI-H1648 | 1.14 |  | 0.909 | 0.922 | 0.468 |  |  |  |  |  | 0.811 | 0.833 | 0.693 | 0.696 |  |  |  |  |  | 0.717
NCI-H1650 | 0.686 | 0.83 | 0.542 | 0.796 | 0.429 | 0.276 | 0.347 | 0.339 | 0.258 | 0.291 |  |  |  |  | 0.557 | 0.587 | 0.558 | 0.529 | 0.639 | 
NCI-H1703 | 0.417 | 0.506 | 0.416 | 0.462 | 0.437 |  |  |  |  |  | 0.139 | 0.134 | 0.104 | 0.152 | 0.223 | 0.216 | 0.302 | 0.254 | 0.249 | 
NCI-H2009 | 0.701 | 0.661 | 0.57 | 0.566 | 0.499 | 0.286 | 0.261 | 0.234 | 0.3 | 0.344 |  |  |  |  | 0.818 | 0.858 | 0.727 | 0.812 | 0.908 | 
NCI-H2023 | 0.576 | 0.4 | 0.222 | 0.169 | 0.0964 | 0.564 | 0.534 | 0.628 | 0.455 | 0.558 |  |  |  |  | 0.268 | 0.229 | 0.195 | 0.238 | 0.254 | 
NCI-H2228 | 0.506 | 0.625 | 0.641 | 0.534 | 0.222 | 0.593 | 0.529 | 0.46 | 0.452 | 0.454 |  |  |  |  | 0.493 | 0.538 | 0.359 | 0.413 | 0.347 | 
NCI-H2342 | 0.474 | 0.469 | 0.379 | 0.521 | 0.431 | 0.313 | 0.316 | 0.298 | 0.344 | 0.322 | 0.576 | 0.633 | 0.362 | 0.416 |  |  |  |  |  | 0.479
SK-LU-1 | 0.51 | 0.497 | 0.462 | 0.401 | 0.324 | 0.211 | 0.196 | 0.204 | 0.211 | 0.211 |  |  |  |  | 0.503 | 0.666 | 0.636 | 0.583 | 0.643 | 
SK-MES-1 | 0.885 | 0.747 | 0.638 | 0.531 | 0.243 | 0.401 | 0.313 | 0.407 | 0.413 | 0.429 |  |  |  |  | 0.358 | 0.348 | 0.363 | 0.348 | 0.344 | 
SW 900 | 0.936 | 0.941 | 0.768 | 0.786 | 0.606 | 0.669 | 0.543 | 0.585 | 0.763 | 0.536 | 0.474 | 0.689 |  | 0.61 |  |  |  |  |  | 0.539
SW 1573 | 0.533 | 0.516 | 0.418 | 0.269 | 0.21 | 0.406 | 0.44 | 0.389 | 0.447 | 0.632 |  |  |  |  | 0.417 | 0.509 | 0.59 | 0.502 | 0.51 | 
